# Measured values: PubChem BioAssay (NCI)
#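 48-hour exposure; five concentrations; linearly interpolated endpoints. At the GI50, growth is halved. TGI marks complete inhibition of growth.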
# Assays:
# Test in all cases: DTP human tumour cell line panel, 48 h
# [1] = tested on: NCI-H522 lung
# [2] = tested on: UACC-62 melanoma
# [3] = tested on: LOX IMVI melanoma
# [4] = tested on: UACC-257 melanoma
# [5] = tested on: MDA-MB-435
# [6] = tested on: ACHN renal
# [7] = tested on: SW-620 colon
# [8] = tested on: IGROV1 ovarian
# [9] = tested on: T-47D breast
# [10] = tested on: SNB-75 CNS
smiles,measurement,setting,value
O=C1CSC2(CC(/C=C/c3ccccc3Br)=NN2c2cccc(S(=O)(=O)O)c2)N1c1nc2ccccc2s1 (stereo not given),TGI,[1],> 100 µM
same,TGI,[2],> 100 µM
same,TGI,[3],> 100 µM
same,TGI,[4],> 100 µM
same,TGI,[5],> 100 µM
same,TGI,[6],> 100 µM
same,TGI,[7],> 100 µM
same,TGI,[8],> 100 µM
same,TGI,[9],> 100 µM
same,TGI,[10],> 100 µM
CC(=O)c1ccc(NC(=O)CSc2nc(C)nc3c2sc(=S)n3-c2ccccc2)cc1,TGI,[1],> 3.16 µM
same,TGI,[2],> 3.16 µM
same,TGI,[3],> 3.16 µM
same,TGI,[4],> 3.16 µM
same,TGI,[5],> 3.16 µM
same,TGI,[6],> 3.16 µM
same,TGI,[7],> 3.16 µM
same,TGI,[8],> 3.16 µM
same,TGI,[9],> 3.16 µM
same,TGI,[10],> 3.16 µM
Oc1[nH]c2ccccc2c1/C=c1/cc2c(c(-c3ccc(C(F)(F)F)cc3)n1)=Nc1ccccc1-2,GI50,[1],1.67 µM
same,TGI,[1],14.3 µM
same,GI50,[2],6.32 µM
same,TGI,[2],21.9 µM
same,GI50,[3],8.87 µM
same,TGI,[3],22.5 µM
same,GI50,[4],13.6 µM
same,TGI,[4],42.3 µM
same,GI50,[5],0.403 µM
same,TGI,[5],10 µM
same,GI50,[6],2.72 µM
same,TGI,[6],11.5 µM
same,GI50,[7],2.4 µM
same,TGI,[7],13 µM
same,GI50,[8],8.25 µM
same,TGI,[8],28.8 µM
same,GI50,[9],3.05 µM
same,TGI,[9],13.9 µM
same,GI50,[10],1.45 µM
same,TGI,[10],20.7 µM
NC(=O)C1=CC2C3C=CC2(O)C(=O)OC3O1 (stereo not given),TGI,[1],4.31 µM
same,TGI,[2],7.74 µM
same,TGI,[3],5.18 µM
same,TGI,[4],7.44 µM
same,TGI,[5],16.5 µM
same,TGI,[6],15.7 µM
same,TGI,[7],28.6 µM
same,TGI,[8],11.7 µM
same,TGI,[9],15.1 µM
same,TGI,[10],29.4 µM
O=C1C=C(N2CCN(c3ccccn3)CC2)C(=O)c2c(O)ccc(O)c21,TGI,[1],41.2 µM
same,TGI,[2],16.1 µM
same,TGI,[3],> 45 µM
same,TGI,[4],23.4 µM
same,TGI,[5],1.75 µM
same,TGI,[6],> 56.2 µM
same,TGI,[7],45.2 µM
same,TGI,[8],43.5 µM
same,TGI,[9],> 100 µM
same,TGI,[10],23.7 µM
COC(=O)C(NC(=O)CSc1nnc(COc2ccc(Cl)cc2)n1-c1ccccc1)C(C)C (stereo not given),TGI,[1],24.7 µM
same,TGI,[2],36.1 µM
same,TGI,[3],88.1 µM
same,TGI,[4],34 µM
same,TGI,[5],43 µM
same,TGI,[6],> 100 µM
same,TGI,[7],> 100 µM
same,TGI,[8],36.8 µM
same,TGI,[9],70.6 µM
same,TGI,[10],38.9 µM
O=P(O)(O)CN1CCNCCN(CP(=O)(O)O)CCNCC1,TGI,[1],> 100 µM
same,TGI,[2],> 100 µM
same,TGI,[3],> 100 µM
same,TGI,[4],> 100 µM
same,TGI,[5],> 100 µM
same,TGI,[6],> 100 µM
same,TGI,[7],> 100 µM
same,TGI,[8],> 51.2 µM
same,TGI,[9],> 100 µM
same,TGI,[10],> 100 µM
Cc1cc(S(=O)(=O)O)c(NC(=O)c2oc3cc(O)ccc3c(=O)c2C)cc1Cl,TGI,[1],> 100 µM
same,TGI,[2],> 100 µM
same,TGI,[3],> 100 µM
same,TGI,[4],> 100 µM
same,TGI,[5],> 100 µM
same,TGI,[6],> 100 µM
same,TGI,[7],> 100 µM
same,TGI,[8],> 100 µM
same,TGI,[9],> 100 µM
same,TGI,[10],> 100 µM
COc1ccc(C(=O)c2ccc(-n3cc(/C=C/[N+](=O)[O-])c4ccccc43)cc2)cc1,TGI,[1],33.8 µM
same,TGI,[2],28.5 µM
same,TGI,[3],19.2 µM
same,TGI,[4],31.3 µM
same,TGI,[5],49.3 µM
same,TGI,[6],52 µM
same,TGI,[7],> 100 µM
same,TGI,[8],26.2 µM
same,TGI,[9],6.41 µM
same,TGI,[10],> 100 µM
CC1(C)CCC2(C(=O)OC3OC(CO)C(O)C(O)C3O)CCC3(CO)C(=CCC4C5(C)CC(O)C(O)C(C)(C(=O)OC6OC(CO)C(O)C(O)C6O)C5CCC43C)C2C1 (stereo not given),TGI,[1],> 100 µM
same,TGI,[2],> 100 µM
same,TGI,[3],> 100 µM
same,TGI,[4],> 100 µM
same,TGI,[5],> 100 µM
same,TGI,[6],> 100 µM
same,TGI,[7],> 100 µM
same,TGI,[8],> 100 µM
same,TGI,[9],> 100 µM
same,TGI,[10],> 100 µM
Cc1c2cccc-2ccc2c1[nH]c1ccccc12,TGI,[1],3.9 µM
same,TGI,[2],3.79 µM
same,TGI,[3],6.41 µM
same,TGI,[4],3.12 µM
same,TGI,[5],4.68 µM
same,TGI,[6],3.2 µM
same,TGI,[7],7.68 µM
same,TGI,[8],5.77 µM
same,TGI,[9],8.45 µM
same,TGI,[10],4.33 µM
CCOC(=O)c1nc2ccccc2nc1NCc1ccc(Cl)cc1Cl,TGI,[1],> 100 µM
same,TGI,[2],> 100 µM
same,TGI,[3],> 100 µM
same,TGI,[4],> 100 µM
same,TGI,[5],> 100 µM
same,TGI,[6],> 100 µM
same,TGI,[7],> 100 µM
same,TGI,[8],> 100 µM
same,TGI,[9],> 100 µM
same,TGI,[10],> 100 µM
Cc1ccc2c(c1)CC1(C2=O)[C@H](c2ccccc2)C2C(=O)c3ccc(C)cc3C2[C@H]1c1ccccc1 (stereo not given in full),TGI,[1],> 100 µM
same,TGI,[2],> 100 µM
same,TGI,[3],> 100 µM
same,TGI,[4],> 100 µM
same,TGI,[5],> 100 µM
same,TGI,[6],> 100 µM
same,TGI,[7],> 100 µM
same,TGI,[8],> 100 µM
same,TGI,[9],> 100 µM
same,TGI,[10],> 100 µM
O=C(CSc1nc2ccc(I)cc2c(=O)n1Cc1ccccc1)NN1C(=O)CCC1=O,TGI,[1],47.1 µM
same,TGI,[2],> 100 µM
same,TGI,[3],> 100 µM
same,TGI,[4],> 100 µM
same,TGI,[5],> 100 µM
same,TGI,[6],34.6 µM
same,TGI,[7],> 100 µM
same,TGI,[8],90.9 µM
same,TGI,[9],> 100 µM
same,TGI,[10],> 100 µM
CC(C)=CCC[C@@H](C)c1c2[nH]c3ccccc3sc-2c(C)c(=O)c1=O,TGI,[1],8.6 µM
same,TGI,[2],68.6 µM
same,TGI,[3],> 29 µM
same,TGI,[4],> 75 µM
same,TGI,[5],> 75 µM
same,TGI,[6],10.8 µM
same,TGI,[7],> 75 µM
same,TGI,[8],26.3 µM
same,TGI,[9],23.1 µM
same,TGI,[10],> 43.3 µM
